Results published in US20080004180A1, “Novel Herbicides Based on Substituted Thien-3-Yl-Sulphonylamino(Thio) Carbonyl-Triazolin(Thi)Ones and 4-Hppd-Inhibitors” (Bayer Cropscience AG, priority 2004, published 2008).

What was measured:
Assay type in all cases: in vivo
Alopecurus myosuroides = assay: Herbicidal action against Alopecurus myosuroides, single ingredients and combinations, with Colby expected action
Source text: (§1) A synergistic effect is present in the case of herbicides whenever the herbicidal action of the active ingredient combination is greater than that of the individual active ingredients applied.
(§2) The anticipated action for a given combination of two herbicides can be calculated as follows (cf. COLBY, S. R.: “Calculating synergistic and antagonistic responses of herbicide combinations”, Weeds 15, pages 20-22, 1967):
(§3) If • X=% damage by herbicide A (active ingredient of formula I) at p kg/ha application rate • and • Y=% damage by herbicide B (active ingredient of Formula II) at q kg/ha application rate • and • E=the expected damage of the herbicides A and B at p and q kg/ha application rate, • then E=X+Y−(X*Y/100).

Amaranthus rudis = assay: Herbicidal action against Amaranthus rudis, single ingredients and combinations, with Colby expected action
Source text: as §1, §2, §3

Galium aparine = assay: Herbicidal action against Galium aparine, single ingredients and combinations, with Colby expected action; details: Table A-3 (first); application rate 3.75 g a.i./ha
Source text: as §1, §2, §3

## CS(=O)(=O)c1ccc(C(=O)C2C(=O)CCCC2=O)c(Cl)c1COCC1CCCO1 (centres unmarked) [Compound (B.7)]
Alopecurus myosuroides; Table A-1, application rate 3.75 g a.i./ha
  Action against Alopecurus myosuroides (%): 0%
Alopecurus myosuroides; Table A-3 (second), application rate 7.5 g a.i./ha
  Action against Alopecurus myosuroides (%): 0%
Amaranthus rudis; Table A-2, application rate 3.75 g a.i./ha
  Action against Amaranthus rudis (%): 35%
Amaranthus rudis; Table A-4, application rate 7.5 g a.i./ha
  Action against Amaranthus rudis (%): 0%
Galium aparine
  Action against Galium aparine (%): 0%
